# According to patent US9897551B2, “Method for accelerated degradation of thermoplastics” (priority 2013, dated 2018):
# Like-named read-outs stand apart in the source and are kept apart here.
# What was measured:
# [1] = pKa values of end-capping agents; assay type: physicochemical; conditions: approximated based on the values of similar structures
# [2] = values taken from literature references (footnote); cited from earlier work
Compound,pKa [1],pKa [2]
CC(C)(c1ccccc1)c1ccc(O)cc1 [p-cumylphenol],10.5,–
COc1ccc(O)cc1 [p-methoxyphenol],–,10.4
